Measurements from ChEMBL document CHEMBL3507680, “University of Dundee, Gates Library screen for HepG2 cell viability”.

Experiment: Human HepG2 cell viability assay in 384 well format
Assay type: toxicity, cell-based
Parameters: dose 125 nL, time 70.5 hour; concentration not given beside the values
Settings: HepG2 cells, read-out: Inhibition

Row | Structure (SMILES) | cytotoxicity at 70.5 h
1 | CCc1ccc(C(=O)N(CC)Cc2ccoc2)cc1S(C)(=O)=O | -13.3%
2 | Cc1nn(CC(C)C)c(N(C)C)c1CNCCCNS(C)(=O)=O | 31.6%
3 | Cc1nc2ccc(C(=O)N(CCC#N)CCC#N)cc2nc1C | 11.6%
4 | COCCOCC(=O)NC(C#N)c1cccc(Cl)c1Cl (stereo not given) | -6.94%
5 | COCCOCC(=O)NC(C#N)c1ccccc1C (stereo not given) | -7.18%
6 | O=C(NCCn1cccc1)C1CCCOC1 (stereo not given) | -5.7%
7 | Cn1cc(Br)cc(NC(=O)Cc2cccs2)c1=O | 17.9%
8 | O=C(NCCCNC(=O)C1CCC1)NCCn1cccc1 | -5.85%
9 | O=C(NCCNC(=O)C1CCCCC1)NCCn1cccc1 | -4.89%
10 | COc1ncc(Cl)c(NCc2ccc([S+](C)[O-])cc2)n1 (stereo not given) | -0.908%
11 | CC1CCCN(C(=O)NCC(F)F)C1 (stereo not given) | -4.81%
12 | COC1CCCN(C(=O)NCC(F)F)C1 (stereo not given) | -5.69%
13 | CN(Cc1ncnn1C)c1ccnc(Cc2ccccc2)n1 | -2.06%
14 | CCN(CC1CCOC1)C(=O)c1cc(OC)c2c(c1)OCCO2 (stereo not given) | 0.516%
15 | CCN(CC1CCOC1)C(=O)c1cc(Cl)c2c(c1)OCO2 (stereo not given) | 26.7%
16 | Cc1nn(CC(C)C)c(N(C)C)c1CNCCS(C)(=O)=O | 5.47%
17 | CC(=O)N(Cc1ccsc1)c1ccccc1 | -7.44%
18 | CN(Cc1ccccc1)CC(C)(C)NC(=O)c1cnns1 | -0.0616%
19 | COCCOCC(=O)NC(C#N)c1c(F)cccc1Cl (stereo not given) | 20.7%
20 | Cc1cc(C)cc(CN2CCCC2c2noc(C)n2)c1 (stereo not given) | 0.367%
21 | CN(Cc1ccccc1)CC(C)(C)NC(=O)c1cnccn1 | -0.0333%
22 | O=C(C1CCCN(Cc2ccccc2)C1)N1CCc2sccc2C1 (stereo not given) | 31%
23 | Cc1nc(C2CCCN2Cc2cc(Cl)c3c(c2)OCO3)no1 (stereo not given) | -4.26%
24 | CC(C)=CCS(=O)(=O)Cc1nc(C(C)C)no1 | -11.6%

Row | Structure (SMILES) | cytotoxicity at 70.5 h
25 | Cc1nc2cc(C(=O)N(CCN(C)C)CCN(C)C)ccc2n1C | -7.57%
26 | CN(C)c1nccc(N(C)Cc2ncnn2C)n1 | -3.04%
27 | Cc1nc(CN2CCCN(C(=O)c3ccn(C)c(=O)c3)CC2)cs1 | 30.7%
28 | CNC(=O)NC(C)c1nc(-c2ccccc2)c[nH]1 (stereo not given) | -3.67%
29 | CN(CCC#N)C(=O)CN(C1CC1)C1CCc2ccccc21 (stereo not given) | 0.586%
30 | Cc1nc(CCNC(=O)NC(C)c2ccc3c(c2)OCCO3)cs1 (stereo not given) | -3.72%
31 | CC(NC(=O)CCS(=O)(=O)C1CCCC1)c1nc(-c2ccccc2)c[nH]1 (stereo not given) | -3.16%
32 | COc1ccccc1CNC(=O)CNc1ccccc1C(C)=O | -1.58%
33 | NC(=O)C1CCCN1C1CCN(C(=O)c2cccc3c2OCO3)CC1 (stereo not given) | -0.518%
34 | CCOc1ccc(C(F)(F)F)cc1NC(=O)N1CCNC(=O)C1 | -1.6%
35 | COCCN1CC(C(=O)Nc2ccc3c(c2)CCC(=O)N3C)CC1=O (stereo not given) | 0.117%
36 | CC(C)(C)CC(=O)NS(=O)(=O)c1ccc(F)cc1C(F)(F)F | -1.73%
37 | COCCS(=O)(=O)NC(C)c1ccccc1Cl (stereo not given) | -2.47%
38 | O=C(CCN1CCOC1=O)N(Cc1ccncc1)CC1CCCO1 (stereo not given) | 4.43%
39 | O=C(NCCC1CCN(CC(F)(F)F)CC1)C1COCCO1 (stereo not given) | 0.242%
40 | CC(C)C1CN(C(=O)c2ccn(C)c(=O)c2)c2ccccc2N1 (stereo not given) | -0.488%
41 | CCOc1ccc(C(F)(F)F)cc1NC(=O)N1CCC(C(N)=O)CC1 | -4.57%
42 | O=C(Nc1cccn(Cc2ccc(F)cc2)c1=O)c1csnn1 | -0.164%
43 | CC1CN(Cc2ccccc2)CCCN1CCS(C)(=O)=O (stereo not given) | -2.05%
44 | Cc1n[nH]c(C2CN(Cc3csc(C4CC4)n3)CCO2)n1 (stereo not given) | -7.97%
45 | CC(Nc1cccc(Oc2ccc(C#N)cn2)c1)C(=O)NC1CC1 (stereo not given) | -6.13%
46 | Cc1nc(-c2ccc(Cl)s2)sc1C(=O)O | 1.47%
47 | NC(=O)c1ccc(S(=O)(=O)NCCc2ccccn2)cc1 | 1.11%
48 | CNC(=O)c1ccc(S(=O)(=O)NCCc2ccccn2)cc1 | 1.59%

Row | Structure (SMILES) | cytotoxicity at 70.5 h
49 | CC(CN1CCOCC1)NC(=O)c1cccc2cn[nH]c12 (stereo not given) | -3.84%
50 | c1ccc2sc(NCC3(N4CCOCC4)CCSC3)nc2c1 (stereo not given) | -4.14%
51 | COc1ncccc1CNC(=O)C1CC(=O)N(C)C1 (stereo not given) | 0.32%
52 | CC(NC(=O)c1ccc(CS(C)(=O)=O)o1)c1ccc(F)c(F)c1 (stereo not given) | -3.42%
53 | Cc1ccc(NCc2ncc(C(C)(C)C)o2)c(Cl)c1 | 1.61%
54 | Cc1cc(NCCS(C)(=O)=O)nc2ccccc12 | -1.98%
55 | CS(=O)(=O)CCOCCNc1ccc(Br)cn1 | -3.34%
56 | N#Cc1ccc(-c2nnc(CSCCN3CCOCC3)o2)cc1 | -5.77%
57 | OC1CCN(Cc2ccc(CNc3ccc(Cl)cn3)cc2)CC1 | -0.577%
58 | Cc1n[nH]c(C)c1CNC(=O)N(Cc1ccccc1)CC(C)(C)O | -3.61%
59 | CNC(=O)c1c(C)cccc1NCc1nnc(C2CC2)o1 | -2.15%
60 | Cc1cc(NCCCNS(C)(=O)=O)nc2ccccc12 | 2.5%
61 | CCc1cnc(CCNC(=O)N2CCCC(c3ncc[nH]3)C2)s1 (stereo not given) | 1.32%
62 | Cc1ncc(COc2cccc3c2NC(=O)CO3)s1 | 14.5%
63 | Clc1ccccc1-c1nnc(CSCCN2CCOCC2)o1 | -2.19%
64 | CC(C)c1nc(COc2cccc3c2NC(=O)CO3)cs1 | 13.8%
65 | CCc1nnc2n1CCN(CC(O)CN1CCC(C)CC1)C2 (stereo not given) | 2.99%
66 | CNC(=O)c1c(C)cccc1NCc1noc(C2CC2)n1 | -2.54%
67 | CC(C)(C)c1cnc(CNc2cccc(Cn3cnnc3)c2)o1 | -2.54%
68 | CCC(CC)CNCC1(S(C)(=O)=O)CCOCC1 | -3.95%
69 | Cc1cnc(CNC(=O)N(Cc2ccccc2)CC(C)(C)O)s1 | -3.13%
70 | Cc1nc(CNC(=O)N(Cc2ccccc2)CC(C)(C)O)oc1C | -3.06%
71 | CCc1cnc(CNC(=O)N2CCCC(c3ncc[nH]3)C2)s1 (stereo not given) | -4.75%
72 | CC(NCCN1CCC(N(C)C)CC1)c1ccc(Cl)s1 (stereo not given) | 14.9%

Row | Structure (SMILES) | cytotoxicity at 70.5 h
73 | O=C(CN1CCOCC1CC(=O)c1ccco1)NCc1ccccn1 (stereo not given) | 2.07%
74 | CC(C)NC(=O)CN(C1CC1)C(C)C1CC1 (stereo not given) | -3.55%
75 | CSC(C)(C)CNC(=O)NCc1cccc(-n2ccnc2)c1 | -12.4%
76 | Cc1ccccc1CN(C)CC(O)COCc1ccccc1Cl (stereo not given) | 21.6%
77 | O=S(=O)(Cc1ccccc1)NCc1nnc2n1CCC2 | -22.1%
78 | CC(=O)c1ccc(-n2c(C)cn(CCS(C)(=O)=O)c2=O)cc1 | -11.2%
79 | CC(=O)c1ccc(-n2c(C)cn(CCC#N)c2=O)cc1 | 22.1%
80 | Cc1cccc(N2CCN(C(=O)CCc3ccsc3)C(C)C2)n1 (stereo not given) | -23.2%
81 | CN(Cc1nnc(C2CCC2)o1)C(C(N)=O)c1cccc(F)c1 (stereo not given) | -1.86%
82 | Cc1cccc(N2CCN(C(=O)Cc3ccccc3O)C(C)C2)n1 (stereo not given) | -1.34%
83 | COCCNC(=O)NCc1cccc(-n2ccnc2)c1 | -13.7%
84 | CC(=O)c1c(F)cccc1NCC(O)C(C)(C)C (stereo not given) | -11.2%
85 | O=C(Cn1cc(-n2cccc2)cn1)NCC1CCC1 | -10.7%
86 | COCCCn1ccc(NS(=O)(=O)c2cc(F)c(C)cc2F)n1 | -12.2%
87 | COc1cccc(CC(=O)NC2CCCc3cn[nH]c32)c1 (stereo not given) | -0.729%
88 | O=S1(=O)CCN2C(=N1)Oc1ccc(Cl)cc12 | 23.7%
89 | Cc1cccc(N2CCN(C(=O)CC3(O)CCCC3)C(C)C2)n1 (stereo not given) | 0.326%
90 | Cc1ccc(CCCC(=O)N2CCCC(CS(N)(=O)=O)C2)s1 (stereo not given) | -5.56%
91 | CC(C)(C#N)c1ccccc1CN(CCO)Cc1ccsc1 | -7.26%
92 | CCOc1ccc(CN2C(=O)CC3(CCCC3)C2=O)nc1 | 17.6%
93 | CCOc1ccc(CN2C(=O)CC(C)(C)C2=O)nc1 | 2.3%
94 | O=C(CNC(=O)C1CC1)NCC1CCCC1 | 4.06%
95 | CCC1CN(C(=O)COc2ccc(C(=O)NC3CC3)cc2)CCO1 (stereo not given) | -2.32%
96 | CN(C)C(=O)C1CN(Cc2ccc(C#N)cc2F)c2ccccc2O1 (stereo not given) | -0.947%

Row | Structure (SMILES) | cytotoxicity at 70.5 h
97 | CC(Cn1cccn1)NC(=O)NCCCN1CCc2ccccc2C1 (stereo not given) | 14.2%
98 | CC(C)(C)OC(=O)N1CSC[C@@H]1C(=O)NCc1ccncc1 | -2.13%
99 | CC(CC(=O)Nc1ncn(CC(=O)N2CCCCCC2)n1)C1CC1 (stereo not given) | 0.138%
100 | CC(C)(C)CC(=O)N1CSCC1C(=O)NCc1cccc(C#N)c1 (stereo not given) | 15.4%
101 | CCCSCC(=O)Nc1ncn(CC(=O)N2CCCCCC2)n1 | -1.09%
102 | CCc1noc(CN(C)CCC(=O)Nc2ccc(Cl)cc2)n1 | -0.958%
103 | CCn1c(CN2CCOC(Cn3cncn3)C2)nc2cc(F)ccc21 (stereo not given) | 0.647%
104 | CCOc1cc(C(=O)NS(C)(=O)=O)cc(-c2ccccc2)c1OC | 0.968%
105 | CCc1cc(CNC(=O)N2Cc3ccccc3N(C)CC2C)on1 (stereo not given) | 3.84%
106 | Cc1cc(C(C)(O)CNC(=O)OC(C)(C)C)c(C)o1 (stereo not given) | 0.912%
107 | O=S(=O)(Nc1ncccc1F)c1cc(Cl)cc2c1OCC2 | 6.97%
108 | CCCS(=O)(=O)NC(=O)c1ccc(CC)o1 | 2.47%
109 | CCc1ccc(CN2CCC3(CC(C(=O)NCC(C)C)=NO3)C2)o1 (stereo not given) | -7.77%
110 | O=C(Cc1ccccc1)N1CCC2(CC1)CC(Nc1cnccn1)CO2 (stereo not given) | -8.13%
111 | c1ccn(Cc2nnc3n2CCCN(c2cnccn2)C3)c1 | 16%
112 | CC(C)CS(=O)(=O)N1C[C@H]2C[C@H](C(=O)N3CCOCC3)[C@@H](C1)O2 | 13.9%
113 | NC(CC1CCCC1)c1ccccc1 (stereo not given) | 0.203%
114 | CC(=O)N1CCC2(CC1)CNc1c(F)cccc12 | -6.53%
115 | COCC(=O)N1CCc2ccccc2C12CCNCC2 | 18.5%
116 | C1CCC(CN2Cc3nnn(CC4CC4)c3C(COCC3CC3)C2)C1 (stereo not given) | -8.05%
117 | O=C(N1CCOCC1)[C@@]12CCO[C@@H]1CCN(Cc1cccc(F)c1)C2 | -8.34%
118 | Cn1ccnc1CN1CCC2(CC1)CCN(c1ccccc1)C2=O | 27.2%
119 | COCC1CN(c2ccc(C)nn2)Cc2cnn(C)c21 (stereo not given) | -7.14%
120 | O=S(=O)(C1CC1)N1CCC2(CC1)CN(Cc1ccccn1)CCO2 | 14.8%
